In ChEMBL document CHEMBL3734736, “A selective delta opioid receptor antagonist based on a stilbene core” (Bioorg Med Chem Lett, 2015):
The source made the active and inactive calls. The calls are words filed in the database; no cut-off is given here.

How the values were obtained:
[1] = target: Mu-type opioid receptor (Homo sapiens) (UniProt P35372); experiment: Antagonist activity at human mu opioid receptor over-expressed in CHO cell membrane assessed as inhibition of DAMGO-induced [35S]GTPgammaS binding at 10 uM after 1 hr by scintillation counting method; format: functional, cell membranes
Sequence of Mu-type opioid receptor (Homo sapiens) (P35372 whole entry): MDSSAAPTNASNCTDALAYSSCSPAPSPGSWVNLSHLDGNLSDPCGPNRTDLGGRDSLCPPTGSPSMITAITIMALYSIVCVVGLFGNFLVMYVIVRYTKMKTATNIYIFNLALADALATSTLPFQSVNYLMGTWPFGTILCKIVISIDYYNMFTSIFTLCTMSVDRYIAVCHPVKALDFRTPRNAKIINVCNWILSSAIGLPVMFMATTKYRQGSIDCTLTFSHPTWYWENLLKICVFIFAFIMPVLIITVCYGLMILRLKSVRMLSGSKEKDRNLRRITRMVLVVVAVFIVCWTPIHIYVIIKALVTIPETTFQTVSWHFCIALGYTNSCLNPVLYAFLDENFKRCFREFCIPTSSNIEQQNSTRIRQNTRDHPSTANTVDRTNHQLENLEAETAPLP

[2] = target: T1, Delta-type opioid receptor (Homo sapiens, UniProt P41143); experiment: Antagonist activity at human delta opioid receptor over-expressed in CHO cell membrane assessed as inhibition of DPDPE-induced [35S]GTPgammaS binding at 10 uM after 1 hr by scintillation counting method; format: functional, cell membranes
T1 sequence (P41143 whole entry): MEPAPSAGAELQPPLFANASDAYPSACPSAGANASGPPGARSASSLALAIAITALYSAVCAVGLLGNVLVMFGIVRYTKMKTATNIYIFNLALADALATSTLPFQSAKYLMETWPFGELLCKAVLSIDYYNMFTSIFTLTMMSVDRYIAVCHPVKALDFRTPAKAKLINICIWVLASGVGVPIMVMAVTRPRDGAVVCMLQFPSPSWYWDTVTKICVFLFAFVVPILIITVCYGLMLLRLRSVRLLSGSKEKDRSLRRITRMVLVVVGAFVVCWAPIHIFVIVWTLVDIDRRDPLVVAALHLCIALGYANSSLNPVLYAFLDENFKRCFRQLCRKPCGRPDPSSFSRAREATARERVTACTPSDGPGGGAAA

[3] = target: Kappa-type opioid receptor (Homo sapiens) (UniProt P41145); experiment: Agonist activity at human kappa opioid receptor over-expressed in CHO cell membrane after 1 hr by [35S]GTPgammaS binding assay; format: functional, cell membranes
Sequence of Kappa-type opioid receptor (Homo sapiens) (P41145 whole entry): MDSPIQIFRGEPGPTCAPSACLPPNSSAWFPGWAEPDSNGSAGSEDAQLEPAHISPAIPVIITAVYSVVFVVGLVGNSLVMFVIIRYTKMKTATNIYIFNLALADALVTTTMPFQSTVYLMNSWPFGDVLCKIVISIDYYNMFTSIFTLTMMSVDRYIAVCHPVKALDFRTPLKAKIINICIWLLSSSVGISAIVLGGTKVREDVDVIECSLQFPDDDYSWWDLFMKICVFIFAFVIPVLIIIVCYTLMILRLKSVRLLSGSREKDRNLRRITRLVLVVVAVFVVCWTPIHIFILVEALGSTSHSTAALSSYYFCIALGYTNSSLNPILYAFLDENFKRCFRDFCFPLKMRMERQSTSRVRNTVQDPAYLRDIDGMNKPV

[4] = target: Kappa-type opioid receptor (Homo sapiens) (UniProt P41145); experiment: Antagonist activity at human kappa opioid receptor over-expressed in CHO cell membrane assessed as inhibition of U69,593-induced [35S]GTPgammaS binding at 10 uM after 1 hr by scintillation counting method; format: functional, cell membranes
CHO [5] = experiment: Selectivity ratio, ratio of Ke for human kappa opioid receptor over-expressed in CHO cell membrane to Ke for human delta opioid receptor over-expressed in CHO cell membrane; format: cell-based
CHO [6] = experiment: Selectivity ratio, ratio of Ke for human mu opioid receptor over-expressed in CHO cell membrane to Ke for human delta opioid receptor over-expressed in CHO cell membrane; format: cell-based
[7] = target: Mu-type opioid receptor (Homo sapiens) (UniProt P35372); experiment: Agonist activity at human mu opioid receptor over-expressed in CHO cell membrane after 1 hr by [35S]GTPgammaS binding assay; format: functional, cell membranes
[8] = target: T1, Delta-type opioid receptor; experiment: Agonist activity at human delta opioid receptor over-expressed in CHO cell membrane after 1 hr by [35S]GTPgammaS binding assay; format: functional, cell membranes

- Ke [1]: > 10 µM
- Ke [2]: 0.025 µM
- Activity [3]: inactive
- Ke [4]: > 10 µM
- Activity [7]: inactive
- EC50 [8]: 6.6 µM
SMILES: COc1cc(/C=C/c2ccc(O)c(O)c2CC=C(C)C)c(C/C=C(\C)CCC=C(C)C)c(OC)c1
- Ratio Ke (CHO [5]): > 400
- Ratio Ke (CHO [6]): > 400
